The values that follow come from ChEMBL document CHEMBL1201862, “PubChem BioAssay data set” (2004).

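How tested: cells in 96-well plates exposed to compound for 48 hours at five concentrations. The concentration for 50% growth inhibition is given as GI50.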 Calls of active or inactive are those of the source. Cut-off read from the data, not from the text of the source: active = GI50 up to about 1.1 µM and inactive = higher. *1 amine or outer side, *2 acyl side, *3 side chain or, on linkers, in order; H or OH if unused. Where a SMILES comes first, the peptide text is derived from it. Bridges are numbered along the chain shown (N, C = ends). [ ]: non-standard residue; d: D form. X36 = CC[C@H](C)[C@@H](N[*:1])[C@@H](O)CC(=O)O[C@H](C(=O)[C@H](C)C(=O)[*:2])C(C)C; NMeY = CN[C@@H](Cc1ccc(O)cc1)C(=O)O

Test systems include MDA-N; SK-OV-3; SK-MEL-28; MOLT-4; MDA-MB-231; SNB-19; ACHN; RPMI-8226; DU-145; SK-MEL-5; OVCAR-3; UACC-257; SN12C; TK-10; LOX IMVI; BT-549; M14; Malme-3M; RXF 393.
Experiment in all cases: DTP human tumour cell line panel, 48 h

As usually defined, the GI50 is the concentration giving 50% growth inhibition. In the case of `CC(=O)C1COC(O)C1C` (stereo not given), the GI50 with MDA-N was 21.3 µM (inactive); with SK-OV-3, 31 µM (inactive); in the test on SK-MEL-28 it was 19.5 µM (inactive); with MOLT-4 it was 17.9 µM (inactive); with MDA-MB-231 it was 22.2 µM (inactive); in the test with SNB-19 it was 31.1 µM (inactive). Moreover, the GI50 in the test with ACHN was 23.9 µM (inactive); with RPMI-8226, 19.7 µM (inactive); with DU-145, 28.3 µM (inactive); in the test on SK-MEL-5, 16 µM (inactive); in the test on OVCAR-3, 19 µM (inactive); in the test on UACC-257, 32.2 µM (inactive). Also, the GI50 in the test on SN12C was 20.7 µM (inactive); with TK-10, 28.6 µM (inactive); with LOX IMVI, 16.4 µM (inactive); in the test with BT-549, 30 µM (inactive); in the test on M14 it was 23.9 µM (inactive).

Take `O=C(C=P(c1ccccc1)(c1ccccc1)c1ccccc1)C12CC3CC(CC(C3)C1)C2`: the GI50 with MDA-N was 14.3 µM (inactive); in the test with SK-MEL-28, 16.8 µM (inactive); in the test with MDA-MB-231, 15.7 µM (inactive); in the test on SNB-19, 12.6 µM (inactive); with ACHN it was 16.2 µM (inactive); with RPMI-8226, 4.06 µM (inactive). Further, the GI50 is 19.1 µM (inactive) in the test with DU-145; 14.8 µM (inactive) in the test on SK-MEL-5; 14.9 µM (inactive) in the test with OVCAR-3; 17.2 µM (inactive) in the test on UACC-257; 15.9 µM (inactive) in the test on SN12C; 19.2 µM (inactive) in the test with Malme-3M. The GI50 in the test with TK-10 was 11.8 µM (inactive); in the test on LOX IMVI, 16.4 µM (inactive); with BT-549 it was 18.2 µM (inactive); in the test with M14 it was 16 µM (inactive).

With `CN(C)c1nc(N)nc(CCl)n1`, the GI50 in the test with SK-OV-3 is 56.2 µM (inactive); in the test with SK-MEL-28 it was 50.4 µM (inactive); in the test with MOLT-4, 18.8 µM (inactive); in the test with MDA-MB-231 it was 27.9 µM (inactive); in the test on SNB-19, > 100 µM (inactive); in the test on ACHN, 15.8 µM (inactive). Moreover, the GI50 was 46 µM (inactive) in the test on RPMI-8226; 99.5 µM (inactive) with DU-145; 29.5 µM (inactive) in the test on SK-MEL-5; 26.5 µM (inactive) in the test with RXF 393; 17.5 µM (inactive) in the test with OVCAR-3; 87.7 µM (inactive) with UACC-257. Besides, the GI50 was 43.4 µM (inactive) in the test on SN12C; 72.8 µM (inactive) in the test with TK-10; 7.87 µM (inactive) in the test with LOX IMVI; 40 µM (inactive) in the test with BT-549; 28.1 µM (inactive) with M14.

With `CCCCNC(=S)Nc1nc(C(=O)NNC(=S)Nc2ccccc2)cs1`, the GI50 in the test on MDA-N was > 100 µM (inactive); in the test on SK-OV-3, > 100 µM (inactive); with MOLT-4, > 100 µM (inactive); in the test with MDA-MB-231, 30.3 µM (inactive); with SNB-19, > 100 µM (inactive); in the test on ACHN it was > 100 µM (inactive). For the same compound, the GI50 in the test with RPMI-8226 was > 100 µM (inactive); with DU-145, > 100 µM (inactive); in the test on SK-MEL-5, 40.4 µM (inactive); with OVCAR-3, > 100 µM (inactive); in the test on UACC-257, > 100 µM (inactive); in the test with SN12C, > 100 µM (inactive). Besides, the figures for the GI50 in the test with TK-10, in the test on BT-549 and in the test with M14 were > 100 µM (inactive), > 100 µM (inactive) and 82.8 µM (inactive), respectively.

As to `CN(C)/C=N/S(=O)(=O)c1nn2c(C=O)c(-c3ccc(Cl)cc3)nc2s1`, the GI50 was 15.8 µM (inactive) with SK-OV-3; 1.62 µM (inactive) in the test on SK-MEL-28; 0.52 µM (active) with MOLT-4; 2.11 µM (inactive) in the test on MDA-MB-231; 14.3 µM (inactive) in the test with SNB-19; 1.15 µM (inactive) in the test with ACHN. The GI50 in the test on RPMI-8226 is 0.785 µM (active); in the test with DU-145, 2.12 µM (inactive); in the test on SK-MEL-5 it was 1.58 µM (inactive); with RXF 393 it was 1.51 µM (inactive); with OVCAR-3, 1.49 µM (inactive); with UACC-257 it was 2.7 µM (inactive). Also, the GI50 in the test on SN12C is 2.23 µM (inactive); in the test on Malme-3M, 1.47 µM (inactive); in the test with TK-10, 1.5 µM (inactive); in the test with LOX IMVI it was 1.25 µM (inactive); in the test with BT-549, 0.713 µM (active); in the test with M14, 0.962 µM (active).

As to `C=C(CC(NC(=O)c1ccc(C(CC)Cc2cnc3nc(N)nc(N)c3n2)cc1)C(=O)O)C(=O)O` (stereo not given), the GI50 with MDA-N is 0.0462 µM (active); with SK-OV-3 it was 0.214 µM (active); in the test on SK-MEL-28, 0.209 µM (active); in the test with MOLT-4 it was 0.0136 µM (active); in the test with MDA-MB-231, 0.0736 µM (active); in the test with ACHN, 0.0184 µM (active). Also, the GI50 in the test on RPMI-8226 was 0.029 µM (active); in the test with SK-MEL-5, 0.0857 µM (active); in the test with RXF 393, 0.237 µM (active); in the test with OVCAR-3 it was 0.19 µM (active); in the test on UACC-257, 0.839 µM (active); with SN12C it was 0.0244 µM (active). For the same compound, the concentration for 50% growth inhibition (GI50) was 0.35 µM (active) with Malme-3M; 0.0719 µM (active) with TK-10; 0.00436 µM (active) with LOX IMVI; 0.0687 µM (active) in the test with BT-549; 0.02 µM (active) in the test with M14.

On to `COC(=O)c1cc2c(cc1Cl)Sc1nnc(Nc3ccccc3)n1S2(=O)=O`, for which the GI50 is 6.75 µM (inactive) with SK-OV-3; 3.15 µM (inactive) in the test with SK-MEL-28; 2.47 µM (inactive) with MOLT-4; 3.98 µM (inactive) with MDA-MB-231; 2.28 µM (inactive) in the test on SNB-19; 1.8 µM (inactive) in the test with ACHN. For the same compound, the GI50 was 1.62 µM (inactive) in the test on RPMI-8226; 1.66 µM (inactive) in the test with DU-145; 7.96 µM (inactive) in the test with SK-MEL-5; 2.21 µM (inactive) with RXF 393; 1.75 µM (inactive) in the test on OVCAR-3; 7.66 µM (inactive) in the test with UACC-257. Besides, the GI50 in the test with SN12C was 6.31 µM (inactive); with Malme-3M it was 3.03 µM (inactive); in the test on TK-10, 2.69 µM (inactive); in the test on LOX IMVI it was 7.98 µM (inactive); in the test on BT-549, 4.46 µM (inactive); in the test with M14, 4.41 µM (inactive).

On to `CCCCCCCCCCCC(=O)Oc1c(Cl)cc(Cl)c(OC(=O)C(=O)Oc2c(Cl)cc(Cl)c(OC(=O)CCCCCCCCCCC)c2Cl)c1Cl`, for which the GI50 in the test on MDA-N is > 100 µM (inactive); in the test on SK-OV-3, > 100 µM (inactive); in the test with SK-MEL-28, > 100 µM (inactive); in the test on MOLT-4, 46.6 µM (inactive); in the test on SNB-19, > 100 µM (inactive); with ACHN, > 100 µM (inactive). For the same compound, the GI50 in the test on RPMI-8226, in the test on DU-145, with SK-MEL-5, with RXF 393, in the test on UACC-257 and with SN12C was > 100 µM (inactive) each time. Further, the GI50 with Malme-3M, in the test on TK-10, with LOX IMVI and with BT-549 was > 100 µM (inactive) throughout.

As for `Cc1ccc2c(c1)nc1n2C(c2c(F)cccc2F)SC1` (stereo not given), the GI50 was 49.8 µM (inactive) with MDA-N; 52.6 µM (inactive) in the test with SK-OV-3; 41 µM (inactive) with SK-MEL-28; 14.1 µM (inactive) in the test on MOLT-4; 41 µM (inactive) with MDA-MB-231; 64.1 µM (inactive) in the test with SNB-19. Also, the GI50 was 35.2 µM (inactive) in the test on ACHN; 34.4 µM (inactive) in the test on RPMI-8226; > 10 µM (inactive) in the test on SK-MEL-5; 27 µM (inactive) with RXF 393; 55.8 µM (inactive) in the test with OVCAR-3; 56.8 µM (inactive) with UACC-257. The GI50 in the test on SN12C was 39.4 µM (inactive); in the test on Malme-3M, 18.9 µM (inactive); in the test on TK-10 it was 81.1 µM (inactive); with LOX IMVI, 33.5 µM (inactive); in the test on BT-549, > 10 µM (inactive); with M14, 51.1 µM (inactive).

Regarding `CC[C@H](C)[C@H]1NC(=O)[C@@H](N)[C@@H](C)OC(=O)[C@H](Cc2ccc(OC)cc2)N(C)C(=O)[C@@H]2CCCN2C(=O)[C@H](CC(C)C)NC(=O)[C@@H](C)C(=O)[C@H](C(C)C)OC(=O)C[C@@H]1O` (H-T[X36]LP[NMeY](Me); ester 1-C), the GI50 with SK-OV-3 was 35.6 µM (inactive); with SK-MEL-28, 16.8 µM (inactive); in the test on MOLT-4, 6.85 µM (inactive); with SNB-19, 28.7 µM (inactive); with ACHN it was 29.1 µM (inactive); with RPMI-8226, 12.7 µM (inactive). The GI50 was 12.9 µM (inactive) in the test on SK-MEL-5; 8.13 µM (inactive) with RXF 393; 20.6 µM (inactive) in the test with OVCAR-3; 15.6 µM (inactive) in the test on UACC-257; 29.6 µM (inactive) in the test on SN12C; 31.7 µM (inactive) in the test on Malme-3M. The GI50 is 36.7 µM (inactive) with TK-10, 21.6 µM (inactive) in the test with LOX IMVI, 20.2 µM (inactive) in the test with BT-549 and 4.84 µM (inactive) in the test with M14.

With `CC(C)=CCC[C@](C)(O[C@@H]1O[C@H](CO)[C@@H](O)[C@H](O)[C@H]1O)[C@H]1CC[C@]2(C)[C@@H]1[C@H](O)C[C@@H]1[C@@]3(C)CC[C@H](O)C(C)(C)[C@@H]3[C@@H](O[C@@H]3O[C@H](CO)[C@@H](O)[C@H](O)[C@H]3O[C@@H]3O[C@@H](C)[C@H](O)[C@@H](O)[C@H]3O)C[C@]12C.CC(C)=CCC[C@](C)(O[C@@H]1O[C@H](CO)[C@@H](O)[C@H](O)[C@H]1O)[C@H]1CC[C@]2(C)[C@@H]1[C@H](O)C[C@@H]1[C@@]3(C)CC[C@H](O)C(C)(C)[C@@H]3[C@@H](O[C@@H]3O[C@H](CO)[C@@H](O)[C@H](O)[C@H]3O[C@@H]3O[C@H](CO)[C@@H](O)[C@H](O)[C@H]3O)C[C@]12C`, the GI50 with MDA-N, in the test with SK-OV-3, in the test with SK-MEL-28, in the test on MOLT-4, with MDA-MB-231 and with SNB-19 was > 75 µM (inactive) each time. The GI50 with ACHN, with RPMI-8226, with DU-145, in the test on SK-MEL-5, with OVCAR-3 and in the test with UACC-257 was > 75 µM (inactive) each time. For the same compound, the GI50 with SN12C is > 75 µM (inactive); with TK-10 it was > 75 µM (inactive); in the test on LOX IMVI it was > 75 µM (inactive); in the test on BT-549, 28.2 µM (inactive); with M14 it was > 75 µM (inactive).
